{"source": "ChEMBL document CHEMBL5465560", "about": "“Selectivity Literature for EUbOPEN Chemogenomic Library” (2024)", "key": {"[1]": {"target": "Dual specificity mitogen-activated protein kinase kinase 1 (Homo sapiens, UniProt Q02750)", "experiment": "Selectivity interaction (Kinase panel (KiNativ target engagement assay in Jurkat cells)) EUB0001635a MAP2K1", "type": "cell-based", "settings": "Selectivity number of off-targets 0.0, Selectivity number of targets 233.0, Source Knowledge https://www.sciencedirect.com/science/article/pii/S2451945619300674?via%3Dihub, at 1 µM"}, "[2]": {"target": "Bone morphogenetic protein receptor type-1A (Homo sapiens, UniProt P36894)", "sequence (P36894 whole entry)": "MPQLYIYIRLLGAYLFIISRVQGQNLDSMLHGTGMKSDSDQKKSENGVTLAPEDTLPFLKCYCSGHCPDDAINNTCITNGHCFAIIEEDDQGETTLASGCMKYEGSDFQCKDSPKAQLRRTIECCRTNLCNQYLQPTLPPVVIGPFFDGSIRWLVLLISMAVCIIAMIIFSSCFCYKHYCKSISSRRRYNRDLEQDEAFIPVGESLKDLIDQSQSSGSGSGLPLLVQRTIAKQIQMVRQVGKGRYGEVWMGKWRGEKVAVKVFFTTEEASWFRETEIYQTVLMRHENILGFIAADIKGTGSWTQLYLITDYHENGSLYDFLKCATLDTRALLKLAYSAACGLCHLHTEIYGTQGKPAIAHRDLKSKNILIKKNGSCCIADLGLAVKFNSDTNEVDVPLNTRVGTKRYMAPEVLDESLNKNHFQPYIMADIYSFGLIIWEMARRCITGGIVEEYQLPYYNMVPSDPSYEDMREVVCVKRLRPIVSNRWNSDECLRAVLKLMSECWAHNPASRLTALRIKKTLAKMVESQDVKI", "experiment": "Selectivity interaction (KinomeScan (DiscoverX)) EUB0000595a BMPR1A", "settings": "at 10 µM"}, "[3]": {"target": "T1, Hormonally up-regulated neu tumor-associated kinase (Homo sapiens) (UniProt P57058)", "T1 sequence (whole entry)": "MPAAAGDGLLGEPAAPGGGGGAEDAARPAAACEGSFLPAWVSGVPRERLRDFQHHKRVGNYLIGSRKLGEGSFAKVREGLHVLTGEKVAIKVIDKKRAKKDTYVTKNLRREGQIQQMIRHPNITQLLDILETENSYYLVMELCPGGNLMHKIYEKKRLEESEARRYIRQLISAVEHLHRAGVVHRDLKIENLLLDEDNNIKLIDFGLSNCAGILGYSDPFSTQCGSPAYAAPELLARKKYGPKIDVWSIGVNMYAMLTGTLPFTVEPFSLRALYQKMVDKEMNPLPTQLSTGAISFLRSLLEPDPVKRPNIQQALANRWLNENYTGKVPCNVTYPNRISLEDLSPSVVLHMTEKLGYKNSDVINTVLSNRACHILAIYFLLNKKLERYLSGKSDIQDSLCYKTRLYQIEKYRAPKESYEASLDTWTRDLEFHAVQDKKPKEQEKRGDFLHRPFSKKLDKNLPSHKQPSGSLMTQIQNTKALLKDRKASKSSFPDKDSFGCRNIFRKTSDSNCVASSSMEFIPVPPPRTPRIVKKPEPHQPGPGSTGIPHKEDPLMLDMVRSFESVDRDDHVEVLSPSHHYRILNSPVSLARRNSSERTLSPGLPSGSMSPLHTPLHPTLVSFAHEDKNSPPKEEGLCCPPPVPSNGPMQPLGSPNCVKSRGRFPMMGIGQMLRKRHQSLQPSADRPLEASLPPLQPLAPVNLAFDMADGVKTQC", "experiment": "Selectivity interaction (KinomeScan (DiscoverX)) EUB0000695a HUNK", "settings": "at 100 nM"}, "[4]": {"target": "Homeodomain-interacting protein kinase 1 (Homo sapiens, UniProt Q86Z02)", "sequence (Q86Z02 whole entry, looked up)": "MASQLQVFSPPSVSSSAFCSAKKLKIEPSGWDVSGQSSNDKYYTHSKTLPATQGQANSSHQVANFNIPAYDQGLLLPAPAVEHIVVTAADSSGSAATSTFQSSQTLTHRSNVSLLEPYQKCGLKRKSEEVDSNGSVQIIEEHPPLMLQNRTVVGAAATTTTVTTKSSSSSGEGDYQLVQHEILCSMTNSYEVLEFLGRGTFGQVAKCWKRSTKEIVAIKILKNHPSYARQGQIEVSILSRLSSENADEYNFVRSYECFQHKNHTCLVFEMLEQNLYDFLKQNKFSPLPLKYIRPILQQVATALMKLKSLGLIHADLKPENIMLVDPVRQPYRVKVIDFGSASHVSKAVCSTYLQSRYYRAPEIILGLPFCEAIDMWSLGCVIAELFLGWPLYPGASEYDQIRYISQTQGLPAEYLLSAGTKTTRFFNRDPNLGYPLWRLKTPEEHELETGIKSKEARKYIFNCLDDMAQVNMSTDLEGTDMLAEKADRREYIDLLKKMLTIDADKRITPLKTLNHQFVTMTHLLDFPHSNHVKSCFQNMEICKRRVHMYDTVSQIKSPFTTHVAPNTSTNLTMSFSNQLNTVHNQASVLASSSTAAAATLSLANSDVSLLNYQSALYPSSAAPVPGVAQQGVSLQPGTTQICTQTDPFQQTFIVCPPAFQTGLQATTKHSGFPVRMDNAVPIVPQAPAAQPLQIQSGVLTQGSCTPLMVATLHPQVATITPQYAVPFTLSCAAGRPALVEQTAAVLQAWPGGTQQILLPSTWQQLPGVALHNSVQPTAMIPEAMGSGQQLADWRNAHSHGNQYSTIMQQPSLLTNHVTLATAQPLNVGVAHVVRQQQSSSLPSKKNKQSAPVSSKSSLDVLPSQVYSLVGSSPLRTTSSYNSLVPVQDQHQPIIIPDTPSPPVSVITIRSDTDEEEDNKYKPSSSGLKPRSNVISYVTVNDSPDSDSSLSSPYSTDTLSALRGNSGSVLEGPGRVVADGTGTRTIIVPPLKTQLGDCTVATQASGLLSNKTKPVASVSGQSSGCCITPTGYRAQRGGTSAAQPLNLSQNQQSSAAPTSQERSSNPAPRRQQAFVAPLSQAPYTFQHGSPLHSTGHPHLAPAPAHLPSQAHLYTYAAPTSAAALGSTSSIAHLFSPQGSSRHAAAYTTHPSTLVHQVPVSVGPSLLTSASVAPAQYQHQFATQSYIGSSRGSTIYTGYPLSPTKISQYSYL", "experiment": "Selectivity interaction (KinomeScan (DiscoverX)) EUB0000695a HIPK1", "settings": "at 100 nM"}, "[5]": {"experiment": "Selectivity interaction (KinomeScan (DiscoverX)) EUB0001079a PKNB", "settings": "at 1 µM"}, "[6]": {"target": "Ribosomal protein S6 kinase alpha-3 (Homo sapiens, UniProt P51812)", "experiment": "Selectivity interaction (Kinase panel (Z-LYTE Assay)) EUB0001632a RPS6KA3", "settings": "at 10 µM"}, "[7]": {"target": "Voltage-dependent L-type calcium channel subunit alpha-1S (Homo sapiens) (UniProt Q13698)", "experiment": "Selectivity interaction (Eurofins CEREP Diversity Profile (receptors and ion channels)) EUB0000279b CACNA1S", "settings": "at 10 µM"}, "[8]": {"target": "Serine/threonine-protein kinase PAK 6 (Homo sapiens) (UniProt Q9NQU5)", "sequence (Q9NQU5 whole entry, looked up)": "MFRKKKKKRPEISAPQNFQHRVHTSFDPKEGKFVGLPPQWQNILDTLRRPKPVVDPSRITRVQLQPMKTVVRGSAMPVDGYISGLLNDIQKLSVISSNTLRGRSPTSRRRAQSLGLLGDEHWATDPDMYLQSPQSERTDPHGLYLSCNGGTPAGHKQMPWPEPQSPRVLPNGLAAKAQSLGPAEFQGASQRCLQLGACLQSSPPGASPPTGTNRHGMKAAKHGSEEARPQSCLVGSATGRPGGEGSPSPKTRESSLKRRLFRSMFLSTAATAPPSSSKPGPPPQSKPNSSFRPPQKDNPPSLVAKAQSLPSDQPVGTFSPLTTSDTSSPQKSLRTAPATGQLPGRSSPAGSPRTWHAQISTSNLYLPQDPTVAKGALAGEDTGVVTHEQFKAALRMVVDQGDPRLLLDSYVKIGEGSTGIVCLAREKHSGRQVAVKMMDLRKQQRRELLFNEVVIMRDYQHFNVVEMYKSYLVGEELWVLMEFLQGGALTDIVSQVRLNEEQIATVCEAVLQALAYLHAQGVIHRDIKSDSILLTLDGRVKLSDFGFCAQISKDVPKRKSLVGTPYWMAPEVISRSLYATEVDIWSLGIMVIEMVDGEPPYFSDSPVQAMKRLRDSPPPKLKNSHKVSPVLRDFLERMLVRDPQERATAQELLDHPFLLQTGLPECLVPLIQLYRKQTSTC", "experiment": "Selectivity interaction (Upstate Kinase Profiler service (Millipore)) EUB0000056c PAK6", "settings": "at 1 µM"}, "[9]": {"target": "Tyrosine-protein kinase FRK (Homo sapiens) (UniProt P42685)", "experiment": "Selectivity interaction (Upstate Kinase Profiler service (Millipore)) EUB0000056c FRK", "settings": "at 1 µM"}, "[10]": {"target": "Non-receptor tyrosine-protein kinase TYK2 (Homo sapiens, UniProt P29597)"}, "[11]": {"target": "LIM domain kinase 1 (Homo sapiens) (UniProt P53667)", "sequence (P53667 whole entry, looked up, the tested form may be a part)": "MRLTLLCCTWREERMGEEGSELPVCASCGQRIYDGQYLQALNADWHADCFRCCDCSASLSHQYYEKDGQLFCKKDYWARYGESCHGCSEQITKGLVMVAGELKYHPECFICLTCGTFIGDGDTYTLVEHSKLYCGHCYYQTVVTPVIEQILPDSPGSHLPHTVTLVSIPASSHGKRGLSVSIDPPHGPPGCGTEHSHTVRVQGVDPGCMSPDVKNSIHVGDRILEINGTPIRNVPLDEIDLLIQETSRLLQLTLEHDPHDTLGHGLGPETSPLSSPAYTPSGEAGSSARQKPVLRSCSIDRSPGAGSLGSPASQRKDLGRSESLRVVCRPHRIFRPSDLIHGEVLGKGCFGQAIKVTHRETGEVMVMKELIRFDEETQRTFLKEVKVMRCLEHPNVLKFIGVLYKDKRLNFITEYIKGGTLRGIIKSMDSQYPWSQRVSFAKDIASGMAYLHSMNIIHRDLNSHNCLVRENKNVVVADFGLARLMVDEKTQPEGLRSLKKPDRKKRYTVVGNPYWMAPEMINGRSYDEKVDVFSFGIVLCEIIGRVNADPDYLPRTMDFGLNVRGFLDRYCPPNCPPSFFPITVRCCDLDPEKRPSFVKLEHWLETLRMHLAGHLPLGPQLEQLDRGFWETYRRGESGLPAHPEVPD", "experiment": "Selectivity interaction (ProQinase) EUB0000171b LIMK1"}, "[12]": {"target": "Casein kinase I isoform alpha (Homo sapiens, UniProt P48729)", "sequence (P48729 2-337 limits assumed)": "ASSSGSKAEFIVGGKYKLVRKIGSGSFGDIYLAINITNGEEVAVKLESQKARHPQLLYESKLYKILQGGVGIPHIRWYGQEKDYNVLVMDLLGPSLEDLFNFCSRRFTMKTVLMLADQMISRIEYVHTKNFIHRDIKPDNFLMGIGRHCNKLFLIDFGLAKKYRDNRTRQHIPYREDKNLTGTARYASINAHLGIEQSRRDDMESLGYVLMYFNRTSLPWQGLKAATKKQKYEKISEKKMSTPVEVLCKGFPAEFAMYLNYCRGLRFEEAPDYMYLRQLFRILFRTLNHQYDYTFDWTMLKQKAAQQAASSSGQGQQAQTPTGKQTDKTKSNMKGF", "experiment": "Selectivity interaction (KinomeScan (DiscoverX)) EUB0001619a CSNK1A1", "settings": "at 1 µM"}, "[13]": {"target": "T2, EKC/KEOPS complex subunit TP53RK (Homo sapiens) (UniProt Q96S44)", "T2 sequence (whole entry)": "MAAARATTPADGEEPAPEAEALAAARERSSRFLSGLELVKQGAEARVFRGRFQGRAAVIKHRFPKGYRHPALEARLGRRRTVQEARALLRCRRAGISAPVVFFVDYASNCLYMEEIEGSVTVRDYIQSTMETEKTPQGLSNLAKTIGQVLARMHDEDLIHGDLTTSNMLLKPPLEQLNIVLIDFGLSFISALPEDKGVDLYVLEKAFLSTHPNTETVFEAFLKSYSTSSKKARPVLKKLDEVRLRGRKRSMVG", "experiment": "Selectivity interaction (ActivX KiNativ screen (ex vivo kinase selectivity in human PBMCs)) EUB0001619a TP53RK", "type": "cell-based", "settings": "PBMC, at 1 µM"}, "Insulin receptor": {"target": "Insulin receptor (Homo sapiens, UniProt P06213)", "experiment": "Selectivity interaction (Kinase panel (literature)) EUB0001199aCl INSR", "settings": "at 1 µM"}, "[14]": {"target": "Mitogen-activated protein kinase 10 (Homo sapiens, UniProt P53779)", "sequence (P53779 whole entry)": "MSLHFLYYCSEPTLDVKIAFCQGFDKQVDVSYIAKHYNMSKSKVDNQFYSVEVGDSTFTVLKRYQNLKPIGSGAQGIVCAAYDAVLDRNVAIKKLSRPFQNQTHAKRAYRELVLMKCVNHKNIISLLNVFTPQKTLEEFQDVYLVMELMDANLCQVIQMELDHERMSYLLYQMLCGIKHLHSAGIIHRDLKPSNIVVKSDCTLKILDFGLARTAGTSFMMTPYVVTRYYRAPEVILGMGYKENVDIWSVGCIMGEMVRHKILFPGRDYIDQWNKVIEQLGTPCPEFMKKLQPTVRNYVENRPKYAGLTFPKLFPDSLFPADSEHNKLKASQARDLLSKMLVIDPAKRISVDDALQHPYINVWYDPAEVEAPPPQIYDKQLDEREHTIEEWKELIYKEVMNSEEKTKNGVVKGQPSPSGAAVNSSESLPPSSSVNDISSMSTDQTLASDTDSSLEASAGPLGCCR", "experiment": "Selectivity interaction (KinomeScan (DiscoverX)) EUB0000607a MAPK10", "settings": "at 10 µM"}, "[15]": {"target": "Calcium/calmodulin-dependent protein kinase type 1D (Homo sapiens) (UniProt Q8IU85)", "sequence (Q8IU85 whole entry, looked up)": "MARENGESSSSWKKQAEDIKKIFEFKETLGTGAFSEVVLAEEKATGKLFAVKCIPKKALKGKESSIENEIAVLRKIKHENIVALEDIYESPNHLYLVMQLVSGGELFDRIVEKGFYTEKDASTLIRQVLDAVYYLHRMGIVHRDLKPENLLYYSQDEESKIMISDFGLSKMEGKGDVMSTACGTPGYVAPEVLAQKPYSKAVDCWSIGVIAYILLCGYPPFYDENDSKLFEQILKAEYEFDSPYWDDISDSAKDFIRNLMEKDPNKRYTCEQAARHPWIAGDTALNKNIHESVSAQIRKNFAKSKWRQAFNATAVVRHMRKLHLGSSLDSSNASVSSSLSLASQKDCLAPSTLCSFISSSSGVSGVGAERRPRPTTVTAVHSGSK", "experiment": "Selectivity interaction (ActivX KiNativ screen (kinase selectivity in THP-1 cell lysates)) EUB0000639a CAMK1D", "type": "subcellular", "settings": "lysate, at 0.01 µM"}, "[16]": {"target": "Interferon-induced, double-stranded RNA-activated protein kinase (Homo sapiens) (UniProt P19525)", "sequence (P19525 whole entry)": "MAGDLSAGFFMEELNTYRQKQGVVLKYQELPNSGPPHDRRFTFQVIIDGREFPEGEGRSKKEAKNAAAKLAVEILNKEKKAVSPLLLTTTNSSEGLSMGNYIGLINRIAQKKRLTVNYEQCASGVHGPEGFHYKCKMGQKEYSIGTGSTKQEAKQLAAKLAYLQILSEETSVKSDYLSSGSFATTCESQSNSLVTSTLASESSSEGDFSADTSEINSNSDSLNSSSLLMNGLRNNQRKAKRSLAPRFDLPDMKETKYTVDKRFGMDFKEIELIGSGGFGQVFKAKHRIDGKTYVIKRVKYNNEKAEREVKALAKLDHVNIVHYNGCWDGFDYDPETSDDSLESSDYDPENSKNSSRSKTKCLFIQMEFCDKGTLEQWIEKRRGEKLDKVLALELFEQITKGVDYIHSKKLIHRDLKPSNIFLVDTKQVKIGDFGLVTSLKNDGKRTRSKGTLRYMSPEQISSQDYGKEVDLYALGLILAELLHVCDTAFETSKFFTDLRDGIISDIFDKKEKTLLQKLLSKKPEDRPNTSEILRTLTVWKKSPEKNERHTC", "experiment": "Selectivity interaction (KinomeScan (DiscoverX)) EUB0000092b EIF2AK2", "settings": "at 10 µM"}, "[17]": {"target": "T3, TGF-beta receptor type-1 (Homo sapiens) (UniProt P36897)", "T3 sequence (whole entry)": "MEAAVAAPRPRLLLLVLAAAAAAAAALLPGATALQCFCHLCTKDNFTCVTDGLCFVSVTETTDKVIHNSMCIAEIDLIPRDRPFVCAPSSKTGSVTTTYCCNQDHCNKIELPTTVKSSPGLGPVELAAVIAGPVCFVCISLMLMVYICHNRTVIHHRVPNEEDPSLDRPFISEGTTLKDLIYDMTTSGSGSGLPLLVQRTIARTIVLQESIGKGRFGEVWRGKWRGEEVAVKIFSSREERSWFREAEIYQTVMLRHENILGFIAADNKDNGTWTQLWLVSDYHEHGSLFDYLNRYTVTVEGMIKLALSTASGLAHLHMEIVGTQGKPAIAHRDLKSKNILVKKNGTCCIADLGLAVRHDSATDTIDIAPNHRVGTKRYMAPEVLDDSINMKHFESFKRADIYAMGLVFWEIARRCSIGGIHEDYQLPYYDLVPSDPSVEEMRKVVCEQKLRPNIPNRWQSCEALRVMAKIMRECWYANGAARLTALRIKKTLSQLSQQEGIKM", "experiment": "Selectivity interaction (KinomeScan (DiscoverX)) EUB0000092b TGFBR1", "settings": "at 10 µM"}}}
{"smiles": "C=CC(=O)Nc1ccc(C(=O)Nc2[nH]nc3c2CN(C(=O)N[C@H](CN(C)C)c2ccccc2)C3(C)C)cc1", "values": [{"measurement": "% of engagement", "setting": "[1]", "value": 4.8, "unit": "%"}]}
{"smiles": "COCC(=O)NC/C=C/c1ccc2ncnc(Nc3ccc(Oc4ccc(C)nc4)c(C)c3)c2c1", "note": "[CP-724714]", "values": [{"measurement": "% of control", "setting": "[2]", "value": 100, "unit": "%"}]}
{"smiles": "Cc1cc(F)c(C(=O)Nc2cccc(-c3nncn3C(C)C)n2)cc1-n1cnc(C2CC2)c1", "values": [{"measurement": "% of control", "setting": "[3]", "value": 100, "unit": "%"}, {"measurement": "% of control", "setting": "[4]", "value": 100, "unit": "%"}]}
{"smiles": "Nc1cnc(N2CCc3cc(S(=O)(=O)Nc4c(F)cc(Cl)cc4F)cc(N4CCCC4=O)c32)nc1", "note": "[TP-020n]", "values": [{"measurement": "% of control", "setting": "[5]", "value": 96, "unit": "%"}]}
{"smiles": "Cn1cc(-n2cnc3c(NCc4nc5cc(Cl)c(Cl)cc5[nH]4)nc(N4CCOCC4)nc32)cn1", "values": [{"measurement": "% of control", "setting": "[6]", "value": 4.92, "unit": "%"}]}
{"smiles": "CC(=O)c1cc(-c2ccccc2OCC2CC2)c2ncccn12", "values": [{"measurement": "% of control", "setting": "[7]", "value": 89, "unit": "%"}]}
{"smiles": "Cc1ccc(-c2ccc3c(ccc4sc5c(c43)NC[C@@H](C)NC5=O)n2)cn1", "values": [{"measurement": "% of inhibition", "setting": "[8]", "value": 9, "unit": "%"}, {"measurement": "% of inhibition", "setting": "[9]", "value": 32, "unit": "%"}]}
{"smiles": "CCc1cccc(CC)c1NC(=O)c1nn(C)c2c1CCc1cnc(Nc3ccc(C(=O)NC4CCN(C)CC4)cc3OC(F)(F)F)nc1-2", "values": [{"measurement": "IC50", "setting": "[10]", "value": "> 10", "unit": "µM"}]}
{"smiles": "C=CC(=O)Nc1cccc(C(=O)Nc2ccc(Nc3cc(-c4[nH]c(SC)nc4C)ccn3)cc2)c1", "values": [{"measurement": "% of control", "setting": "[11]; at 1 µM", "value": 72, "unit": "%"}, {"measurement": "% of control", "setting": "[11]; at 5 µM", "value": 46, "unit": "%"}]}
{"smiles": "N#Cc1cccc(-c2c[nH]c3ncnc(N4CCOCC4)c23)c1", "values": [{"measurement": "% of control", "setting": "[12]", "value": 100, "unit": "%"}, {"measurement": "% of inhibition", "setting": "[13]", "value": -4, "unit": "%"}]}
{"smiles": "CN1Cc2nccc(-c3cn(C)nc3-c3ccc(F)cc3)c2C1=O", "values": [{"measurement": "% of inhibition", "setting": "Insulin receptor", "value": 3, "unit": "%"}]}
{"smiles": "CNC(=O)Nc1ccc(-c2nc(N3CC4CCC(C3)O4)c3cnn(C4CCC5(CC4)OCCO5)c3n2)cc1", "values": [{"measurement": "% of control", "setting": "[14]", "value": 86, "unit": "%"}]}
{"smiles": "CC[C@@H]1[C@H](F)C(=O)N[C@@H]1COc1nccc2cc(C(N)=O)c(OC)cc12", "note": "[ZIMLOVISERTIB]", "values": [{"measurement": "% of inhibition", "setting": "[15]", "value": -1.8, "unit": "%"}]}
{"smiles": "CCC(=O)N1CCN(c2ccc(-n3c(=O)ccc4cnc5ccc(-c6cnc7ccccc7c6)cc5c43)cc2C(F)(F)F)CC1", "values": [{"measurement": "% of control", "setting": "[16]", "value": 88, "unit": "%"}, {"measurement": "% of control", "setting": "[17]", "value": 70, "unit": "%"}]}
